Results reported in ChEMBL document CHEMBL2163215, “Mitigating hERG Inhibition: Design of Orally Bioavailable CCR5 Antagonists as Potent Inhibitors of R5 HIV-1 Replication” (ACS Med Chem Lett, 2012).
Activity calls are given as the source filed them. The calls are words filed in the database; no cut-off is given here.

What was measured:
[1] = target: C-C chemokine receptor type 2 (Homo sapiens) (UniProt P41597); settings: at 5 µM
Description: Antagonist activity at CCR2b at 5 uM by calcium flux assay

[2] = target: C-X-C chemokine receptor type 4 (Homo sapiens) (UniProt P61073); settings: at 5 µM
Description: Antagonist activity at CXCR4 at 5 uM by calcium flux assay

[3] = Cardiotoxicity in dog purkinje fiber assessed as change in resting membrane potential at 10 uM measured at basic cycle length of 1 second
[4] = target: T1, C-C chemokine receptor type 4 (Homo sapiens) (UniProt P51679); settings: at 5 µM
T1 sequence (whole entry): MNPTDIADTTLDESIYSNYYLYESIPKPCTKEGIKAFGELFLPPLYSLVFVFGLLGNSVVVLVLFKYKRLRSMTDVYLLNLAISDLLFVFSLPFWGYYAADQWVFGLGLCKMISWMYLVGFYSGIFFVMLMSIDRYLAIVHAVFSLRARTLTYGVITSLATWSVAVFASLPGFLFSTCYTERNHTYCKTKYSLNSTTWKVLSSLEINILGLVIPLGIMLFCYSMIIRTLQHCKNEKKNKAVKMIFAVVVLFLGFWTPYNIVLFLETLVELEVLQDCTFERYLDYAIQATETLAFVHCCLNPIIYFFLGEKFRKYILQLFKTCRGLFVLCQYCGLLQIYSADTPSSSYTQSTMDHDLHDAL
Description: Antagonist activity at CCR4 at 5 uM by calcium flux assay

[5] = Cardiotoxicity in dog purkinje fiber assessed as change in action potential amplitude at 10 uM measured at basic cycle length of 2 seconds
[6] = Cardiotoxicity in dog purkinje fiber assessed as change in action potential duration at 60% at 10 uM measured at basic cycle length of 1 second
[7] = Cardiotoxicity in dog purkinje fiber assessed as change in action potential duration at 60% at 10 uM measured at basic cycle length of 2 seconds
[8] = Cardiotoxicity in dog purkinje fiber assessed as change in action potential amplitude at 10 uM measured at basic cycle length of 1 second
[9] = Cardiotoxicity in dog purkinje fiber assessed as change in resting membrane potential at 10 uM measured at basic cycle length of 0.5 seconds
[10] = Cardiotoxicity in dog purkinje fiber assessed as change in resting membrane potential at 10 uM measured at basic cycle length of 2 seconds
[11] = system: Human immunodeficiency virus 1; assay: Antiviral activity against R5 tropic HIV1 Ba-L infected human PBMC assessed as inhibition of viral replication by p-24 antigen specific ELISA; type: functional, organism-based; settings: Human immunodeficiency virus 1, Ba-L
[12] = (§1) Fraction unbound in human plasma after 5 hrs
[13] = Cardiotoxicity in dog purkinje fiber assessed as change in action potential duration at 90% at 10 uM measured at basic cycle length of 0.5 seconds
[14] = Cardiotoxicity in dog purkinje fiber assessed as change in action potential duration at 60% at 10 uM measured at basic cycle length of 0.5 seconds
[15] = Cardiotoxicity in dog purkinje fiber assessed as change in action potential duration at 90% at 10 uM measured at basic cycle length of 2 seconds
[16] = Cardiotoxicity in dog purkinje fiber assessed as change in action potential duration at 90% at 10 uM measured at basic cycle length of 1 second
[17] = target: T2, C-X-C chemokine receptor type 2 (Homo sapiens) (UniProt P25025); settings: at 5 µM
T2 sequence (whole entry): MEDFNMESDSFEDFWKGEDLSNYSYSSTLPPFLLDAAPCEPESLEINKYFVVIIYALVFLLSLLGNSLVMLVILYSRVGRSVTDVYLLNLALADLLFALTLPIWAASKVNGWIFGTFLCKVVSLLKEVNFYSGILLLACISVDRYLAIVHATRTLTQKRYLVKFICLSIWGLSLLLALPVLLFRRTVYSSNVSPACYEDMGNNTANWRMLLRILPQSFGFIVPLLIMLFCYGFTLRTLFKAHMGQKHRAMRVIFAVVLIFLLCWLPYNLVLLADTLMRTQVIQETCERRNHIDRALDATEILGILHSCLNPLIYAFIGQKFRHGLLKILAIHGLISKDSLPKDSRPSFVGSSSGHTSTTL
Description: Antagonist activity at CXCR2 at 5 uM by calcium flux assay

[18] = Cytotoxicity against human PBMC
[19] = Toxicity in rat administered for 7 days; settings: in vivo
[20] = Cardiotoxicity in dog purkinje fiber assessed as change in action potential amplitude at 10 uM measured at basic cycle length of 0.5 seconds
[21] = target: T3, C-X-C chemokine receptor type 1 (Homo sapiens) (UniProt P25024); settings: at 5 µM
T3 sequence (whole entry): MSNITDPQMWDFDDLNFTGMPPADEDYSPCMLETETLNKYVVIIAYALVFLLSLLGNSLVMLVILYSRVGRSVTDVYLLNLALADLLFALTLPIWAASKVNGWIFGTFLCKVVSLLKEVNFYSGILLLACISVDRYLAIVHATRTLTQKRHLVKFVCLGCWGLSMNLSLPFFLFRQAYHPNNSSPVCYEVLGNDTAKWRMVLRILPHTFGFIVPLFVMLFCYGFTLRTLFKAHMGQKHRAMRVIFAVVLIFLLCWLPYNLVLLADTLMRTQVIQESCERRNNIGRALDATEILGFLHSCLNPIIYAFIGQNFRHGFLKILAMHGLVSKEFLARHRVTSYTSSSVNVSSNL
Description: Antagonist activity at CXCR1 at 5 uM by calcium flux assay

[22] = target: T4, C-C chemokine receptor type 1 (Homo sapiens) (UniProt P32246); settings: at 5 µM
T4 sequence (whole entry): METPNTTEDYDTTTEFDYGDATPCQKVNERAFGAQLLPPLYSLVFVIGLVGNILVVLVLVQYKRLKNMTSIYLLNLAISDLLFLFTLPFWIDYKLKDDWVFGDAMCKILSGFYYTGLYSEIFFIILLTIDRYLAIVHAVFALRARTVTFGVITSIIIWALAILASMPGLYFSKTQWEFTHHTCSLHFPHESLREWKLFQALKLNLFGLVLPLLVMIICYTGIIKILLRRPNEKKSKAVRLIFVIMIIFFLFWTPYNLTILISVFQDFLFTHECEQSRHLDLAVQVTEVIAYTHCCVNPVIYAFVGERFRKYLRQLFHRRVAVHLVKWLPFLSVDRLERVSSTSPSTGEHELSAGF
Description: Antagonist activity at CCR1 at 5 uM by calcium flux assay

[23] = Volume of distribution in dog at 5 umol/kg, iv; settings: in vivo
in vivo [24] = settings: dog, plasma
[25] = Clearance in dog at 5 umol/kg, iv; settings: in vivo
in vivo [26] = settings: dog, po, 12.5 umol/kg
Description: Oral bioavailability in dog at 12.5 umol/kg

in vivo [27] = settings: dog, po
hERG (KCNH2) = hERG (KCNH2) (Homo sapiens, UniProt Q12809); assay: Inhibition of human recombinant hERG expressed in CHO cells at 10 uM by automated patch clamp assay; settings: CHO cells expressing human recombinant hERG
[28] = target: Voltage-gated inwardly rectifying potassium channel KCNH2 (Homo sapiens, UniProt Q12809); assay: Inhibition of human recombinant hERG expressed in CHO cells by automated patch clamp assay
Plasma = assay: as §1; settings: 5 h
[29] = Half life in dog at 5 umol/kg, iv; settings: in vivo

Sequence of hERG (KCNH2) (Q12809 whole entry): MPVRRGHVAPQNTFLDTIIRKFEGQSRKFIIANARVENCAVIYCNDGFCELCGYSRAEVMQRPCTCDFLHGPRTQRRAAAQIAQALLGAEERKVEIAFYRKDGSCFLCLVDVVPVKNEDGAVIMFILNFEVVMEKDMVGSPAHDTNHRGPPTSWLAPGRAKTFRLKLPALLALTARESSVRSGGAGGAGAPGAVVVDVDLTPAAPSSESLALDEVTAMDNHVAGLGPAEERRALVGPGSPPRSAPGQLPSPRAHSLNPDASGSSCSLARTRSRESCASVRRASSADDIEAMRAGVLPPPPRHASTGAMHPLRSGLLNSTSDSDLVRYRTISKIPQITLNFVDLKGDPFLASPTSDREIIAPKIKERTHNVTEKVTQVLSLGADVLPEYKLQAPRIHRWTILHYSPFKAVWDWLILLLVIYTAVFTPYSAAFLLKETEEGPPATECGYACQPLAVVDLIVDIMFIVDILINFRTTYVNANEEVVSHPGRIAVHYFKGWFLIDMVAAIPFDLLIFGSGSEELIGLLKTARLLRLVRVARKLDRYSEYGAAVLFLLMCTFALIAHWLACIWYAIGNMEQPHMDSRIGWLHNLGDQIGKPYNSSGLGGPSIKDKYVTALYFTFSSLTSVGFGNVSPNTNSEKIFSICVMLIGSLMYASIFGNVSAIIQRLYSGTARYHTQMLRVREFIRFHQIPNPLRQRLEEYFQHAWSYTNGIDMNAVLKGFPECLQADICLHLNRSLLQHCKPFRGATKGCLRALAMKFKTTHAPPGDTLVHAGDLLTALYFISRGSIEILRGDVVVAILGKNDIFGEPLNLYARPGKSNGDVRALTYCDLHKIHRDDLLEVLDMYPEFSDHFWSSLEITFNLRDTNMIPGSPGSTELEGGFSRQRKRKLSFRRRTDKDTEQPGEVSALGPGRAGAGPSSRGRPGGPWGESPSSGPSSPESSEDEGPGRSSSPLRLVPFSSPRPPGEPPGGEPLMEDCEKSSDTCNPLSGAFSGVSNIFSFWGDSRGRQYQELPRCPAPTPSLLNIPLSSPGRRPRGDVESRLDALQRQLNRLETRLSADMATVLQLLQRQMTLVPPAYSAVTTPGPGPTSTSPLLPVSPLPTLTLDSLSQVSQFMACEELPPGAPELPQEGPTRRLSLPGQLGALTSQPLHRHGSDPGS
Sequence of C-C chemokine receptor type 2 (Homo sapiens) (P41597 whole entry, looked up): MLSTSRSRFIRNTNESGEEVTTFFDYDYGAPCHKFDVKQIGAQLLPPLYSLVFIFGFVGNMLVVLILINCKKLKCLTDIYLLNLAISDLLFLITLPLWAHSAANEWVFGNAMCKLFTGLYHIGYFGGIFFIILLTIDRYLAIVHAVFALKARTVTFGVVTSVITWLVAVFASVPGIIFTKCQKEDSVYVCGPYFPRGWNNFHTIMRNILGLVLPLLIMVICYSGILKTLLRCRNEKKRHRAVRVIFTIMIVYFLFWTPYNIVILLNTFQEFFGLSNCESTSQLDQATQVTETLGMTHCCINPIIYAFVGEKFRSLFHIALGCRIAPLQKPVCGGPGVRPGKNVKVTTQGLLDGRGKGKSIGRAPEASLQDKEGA
Sequence of C-X-C chemokine receptor type 4 (Homo sapiens) (P61073 whole entry): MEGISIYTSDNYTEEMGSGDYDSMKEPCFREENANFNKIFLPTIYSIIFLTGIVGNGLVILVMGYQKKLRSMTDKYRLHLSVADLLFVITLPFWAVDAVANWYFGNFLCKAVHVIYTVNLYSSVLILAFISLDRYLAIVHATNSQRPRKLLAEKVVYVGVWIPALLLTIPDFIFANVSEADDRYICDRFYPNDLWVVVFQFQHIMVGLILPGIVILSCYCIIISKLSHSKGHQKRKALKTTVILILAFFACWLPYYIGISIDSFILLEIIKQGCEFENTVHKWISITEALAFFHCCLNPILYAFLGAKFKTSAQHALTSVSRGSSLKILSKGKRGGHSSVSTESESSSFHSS
Sequence of Voltage-gated inwardly rectifying potassium channel KCNH2 (Q12809 whole entry): as the sequence (Q12809 whole entry) above

With COCCONC(=O)N(Cc1ccsc1)C1CCN([C@H](C)CCNC(=O)c2c(C)cc(Cl)nc2C)CC1 the inhibition [1] was “inactive”, the inhibition [2] was “inactive” and the Activity [3] was -2.8 mV. For the same compound, the inhibition [4] was “inactive”, the Activity [5] was 2.4 mV and the Activity [6] was 18.1%. For the same compound, the Activity [7] was 24.2%, the Activity [8] was 1.3 mV and the Activity [9] was -3.6 mV. It also gave an Activity [10] of -2.7 mV, an IC50 [11] of 21.3 nM and a fraction unbound at 5 h [12] of 0.43. It also gave an Activity [13] of 10.5%, an Activity [14] of 12.2% and an Activity [15] of 22.6%. For the same compound, the Activity [16] was 16.5%, the inhibition [17] was “inactive” and the CC50 [18] was greater than 34400 nM. For the same compound, the NOAEL at 168 h [19] was no less than 400 mg/kg, the Activity [20] was 1.2 mV and the inhibition [21] was “inactive”. The inhibition [22] was “inactive”.
CONC(=O)N(Cc1ccsc1)C1CCN([C@H](C)CCNC(=O)c2c(C)cc(C#N)nc2Cl)CC1 gave an IC50 [11] of 2.9 nM, a fraction unbound at 5 h [12] of 0.75 and a Vd [23] of 6.3 L/kg. For the same compound, the AUC(0-inf) (in vivo [24]) was 3.24 µM·h, the clearance [25] was 39.2 mL/min/kg and the bioavailability (in vivo [26]) was 60%. It also gave a CC50 [18] greater than 38500 nM and a Cmax (in vivo [27]) of 1940 nM.
With Cc1cc(Cl)nc(C)c1C(=O)NCC[C@@H](C)N1CCC(N(Cc2ccsc2)C(=O)NO)CC1 the IC50 [11] was 344 nM, the fraction unbound at 5 h [12] was 0.4 and the CC50 [18] was greater than 38500 nM. It also gave an inhibition at 10 µM (hERG (KCNH2)) of 44%.
CNC(=O)N(Cc1ccsc1)C1CCN([C@H](C)CCNC(=O)c2c(C)cc(Cl)nc2C)CC1 showed an IC50 [11] of 15.5 nM, a fraction unbound at 5 h [12] of 0.46 and a CC50 [18] greater than 40600 nM. It also gave an inhibition at 10 µM (hERG (KCNH2)) of 73% and an IC50 [28] of 1600 nM.
With CONC(=O)N(Cc1ccsc1)C1CCN([C@H](C)CCNC(=O)c2c(C)cc(Cl)nc2C)CC1 the inhibition [1] was “inactive”, the inhibition [2] was “inactive” and the inhibition [4] was “inactive”. The IC50 [11] was 14.8 nM, the inhibition [17] was “inactive” and the inhibition [21] was “inactive”. The inhibition [22] was “inactive”.
COc1ccc(N(Cc2cnccc2C)C2CCN([C@H](C)CCNC(=O)c3c(C)ncnc3C)CC2)cc1 gave an IC50 [11] of 1830 nM, a Fu (Plasma) of 83% and a CC50 [18] greater than 38300 nM. For the same compound, the inhibition at 10 µM (hERG (KCNH2)) was 58%.
In the case of CONC(=O)N(Cc1ccsc1)C1CCN([C@H](C)CCNC(=O)c2c(C)cc(C(=O)NC(C)C)nc2C)CC1, the inhibition [1] is reported as “inactive”, the inhibition [2] is reported as “inactive” and the inhibition [4] is reported as “inactive”. For the same compound, the IC50 [11] was 4.8 nM, the inhibition [17] was “inactive” and the inhibition [21] was “inactive”. For the same compound, the inhibition [22] was “inactive”.
In the case of Cc1cc(C#N)nc(C)c1C(=O)NCC[C@@H](C)N1CCC(N(Cc2ccsc2)C(=O)CC2CCOCC2)CC1, the IC50 [11] is reported as 16.1 nM, the fraction unbound at 5 h [12] is reported as 0.85 and the CC50 [18] is reported as greater than 36200 nM. The inhibition at 10 µM (hERG (KCNH2)) was 61%.
With COCC(=O)N(Cc1ccsc1)C1CCN([C@H](C)CCNC(=O)c2c(C)cc(Cl)nc2C)CC1 the inhibition [1] was “inactive”, the inhibition [2] was “inactive” and the inhibition [4] was “inactive”. The IC50 [11] was 38 nM, the inhibition [17] was “inactive” and the inhibition [21] was “inactive”. The inhibition [22] was “inactive”.
In the case of CONC(=O)N(Cc1ccsc1)C1CCN([C@H](C)CCNC(=O)c2c(C)cc(Cl)[n+]([O-])c2Cl)CC1, the half-life [29] is reported as 42 min, the IC50 [11] is reported as 7.3 nM and the fraction unbound at 5 h [12] is reported as 0.31. The Vd [23] was 2.6 L/kg, the AUC(0-inf) (in vivo [24]) was 0.37 µM·h and the clearance [25] was 40.3 mL/min/kg. The bioavailability (in vivo [26]) was 7%, the CC50 [18] was greater than 38500 nM and the inhibition at 10 µM (hERG (KCNH2)) was 21%. It also gave a Cmax (in vivo [27]) of 260 nM.
With COc1ccc(N(Cc2ccsc2)C2CCN([C@H](C)CCNC(=O)c3c(C)ncnc3C)CC2)cc1 the IC50 [11] was 65.9 nM, the fraction unbound at 5 h [12] was 0.91 and the CC50 [18] was greater than 38700 nM. It also gave an inhibition at 10 µM (hERG (KCNH2)) of 97%.
Work on CC(=O)N(Cc1ccsc1)C1CCN([C@H](C)CCNC(=O)c2c(C)cc(Cl)nc2C)CC1 yielded an IC50 [11] of 138 nM.
Work on Cc1cc(Cl)nc(C)c1C(=O)NCC[C@@H](C)N1CCC(N(Cc2ccsc2)C(=O)CC2CCOCC2)CC1 yielded an IC50 [11] of 22.5 nM, a fraction unbound at 5 h [12] of 0.8 and a CC50 [18] greater than 35600 nM. It also gave an inhibition at 10 µM (hERG (KCNH2)) of 67%.
With Cc1cc(Cl)nc(C)c1C(=O)NCC[C@@H](C)N1CCC(N(Cc2ccsc2)C(=O)Nc2cccnc2)CC1 the IC50 [11] was 34.4 nM, the fraction unbound at 5 h [12] was 0.46 and the CC50 [18] was greater than 32400 nM. For the same compound, the inhibition at 10 µM (hERG (KCNH2)) was 20%.
